Converted amounts (≈) assume the structure as drawn.

The assay concerns Escherichia coli ATCC 25922. Put plainly: Minimal Inhibitory Concentration (MIC) determination, broth microdilution (CLSI M07-A10). The format is cell-based. Conditions: Escherichia coli, ATCC25922, strain Escherichia coli ATCC 25922, 18-24 hours at 35±2° C., lowest concentration for complete growth inhibition (no visible growth), read-out: Escherichia coli growth inhibition MIC. The method in brief: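 Broth microdilution per CLSI M07-A10; compounds in 2-fold serial dilutions; inoculum from 0.5 McFarland suspension diluted 1:200 in broth. Incubated 18-24 h at 35±2° C in ambient air; MIC (μg/mL) taken as lowest concentration giving no visible growth.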
On the technique in general: In broth dilution the organism is exposed to a series of concentrations in liquid medium.
For `CN(C)CCn1nnc2c(F)c3c(c(F)c21)CC(CN1CCC2(CC1)CN(c1cnc4c(n1)NC(=O)CO4)C(=O)O2)C3` (stereo not shown) [Example 64, 6-[8-[[1-[2-(Dimethylamino)ethyl]-4,8-difluoro-6,7-dihydro-5H-cyclopenta[f]benzotriazol-6-yl]methyl]-2-oxo-1-oxa-3,8-diazaspiro[4.5]decan-3-yl]-4H-pyrazino[2,3-b][1,4]oxazin-3-one], the MIC amounted to 0.25 µg/mL (≈ 0.428 µM).

In the case of `CN(C)CCn1nnc2c(F)c3c(cc21)CC(CN1CCC2(CC1)CN(c1cnc4c(n1)NC(=O)CO4)C(=O)O2)C3` (stereo not shown) [Example 65, 6-[8-[[3-[2-(Dimethylamino)ethyl]-8-fluoro-6,7-dihydro-5H-cyclopenta[f]benzotriazol-6-yl]methyl]-2-oxo-1-oxa-3,8-diazaspiro[4.5]decan-3-yl]-4H-pyrazino[2,3-b][1,4]oxazin-3-one], the MIC turned out to be 0.125 µg/mL (≈ 0.221 µM).

For `C[C@@H](N)c1nc2c(F)c3c(c(F)c2n1C)CC(CN1CCC2(CC1)CN(c1cnc4c(n1)NC(=O)CO4)C(=O)O2)C3` (stereo partly drawn) [Example 68, 6-[8-[[2-[(1R)-1-aminoethyl]-4,8-difluoro-1-methyl-6,7-dihydro-5H-cyclopenta[f]benzimidazol-6-yl]methyl]-2-oxo-1-oxa-3,8-diazaspiro[4.5]decan-3-yl]-4H-pyrazino[2,3-b][1,4]oxazin-3-one], the minimum inhibitory concentration (MIC) worked out at 0.125 µg/mL (≈ 0.22 µM).

On to `CNCCc1nc2cc3c(c(F)c2[nH]1)CC(CN1CCC2(CC1)CN(c1cnc4c(n1)NC(=O)CO4)C(=O)O2)C3` (stereo not shown) [Example 69, 6-[8-[[8-fluoro-2-[2-(methylamino)ethyl]-1,5,6,7-tetrahydrocyclopenta[f]benzimidazol-6-yl]methyl]-2-oxo-1-oxa-3,8-diazaspiro[4.5]decan-3-yl]-4H-pyrazinio[2,3-b][1,4]oxazin-3-one], for which the MIC turned out to be 0.25 µg/mL (≈ 0.454 µM).

In the case of `COCCNCc1nc2c(F)c3c(cc2[nH]1)CC(CN1CCC2(CC1)CN(c1cnc4c(n1)NC(=O)CO4)C(=O)O2)C3` (stereo not shown) [Example 70, 6-[8-[[8-fluoro-2-[(2-methoxyethylamino)methyl]-3,5,6,7-tetrahydrocyclopenta[f]benzimidazol-6-yl]methyl]-2-oxo-1-oxa-3,8-diazaspiro[4.5]decan-3-yl]-4H-pyrazino[2,3-b][1,4]oxazin-3-one], the minimal inhibitory concentration (MIC) is 0.25 µg/mL (≈ 0.431 µM).

With `CNC(=O)CNCc1nc2c(F)c3c(cc2[nH]1)CC(CN1CCC2(CC1)CN(c1cnc4c(n1)NC(=O)CO4)C(=O)O2)C3` (stereo not shown) [Example 71, 2-[[8-fluoro-6-[[2-oxo-3-(3-oxo-4H-pyrazino[2,3-b][1,4]oxazin-6-yl)-1-oxa-3,8-diazaspiro[4.5]decan-8-yl]methyl]-3,5,6,7-tetrahydrocyclopenta[f]benzimidazol-2-yl]methylamino]-N-methyl-acetamide], the MIC was 1 µg/mL (≈ 1.68 µM).

Take `Cc1nc2c(F)c3c(cc2n1CCN)CC(CN1CCC2(CC1)CN(c1cnc4c(n1)NC(=O)CO4)C(=O)O2)C3` (stereo not shown) [Example 73, 6-[8-[[3-(2-Aminoethyl)-8-fluoro-2-methyl-6,7-dihydro-5H-cyclopenta[f]benzimidazol-6-yl]methyl]-2-oxo-1-oxa-3,8-diazaspiro[4.5]decan-3-yl]-4H-pyrazino[2,3-b][1,4]oxain-3-one]: the MIC worked out at 2 µg/mL (≈ 3.63 µM).

Turning to `NCCn1nc2cc3c(c(F)c2n1)CC(CN1CCC2(CC1)CN(c1cnc4c(n1)NC(=O)CO4)C(=O)O2)C3` (stereo not shown) [Example 74, 6-[8-[[2-(2-aminoethyl)-8-fluoro-6,7-dihydro-5H-cyclopenta[f]benzotriazol-6-yl]methyl]-2-oxo-1-oxa-3,8-diazaspiro[4.5]decan-3-yl]-4H-pyrazino[2,3-b][1,4]oxazin-3-one], the MIC was found to be 0.06 µg/mL (≈ 0.112 µM).

For the compound `NCCn1nnc2c(F)c3c(cc21)CC(CN1CCC2(CC1)CN(c1cnc4c(n1)NC(=O)CO4)C(=O)O2)C3` (stereo not shown) [Example 75, 6-[8-[[3-(2-aminoethyl)-8-fluoro-6,7-dihydro-5H-cyclopenta[f]benzotriazol-6-yl]methyl]-2-oxo-1-oxa-3,8-diazaspiro[4.5]decan-3-yl]-4H-pyrazino[2,3-b][1,4]oxazin-3-one], the minimal inhibitory concentration (MIC) was ≤ 0.06 µg/mL.

`NCCn1nnc2cc3c(c(F)c21)CC(CN1CCC2(CC1)CN(c1cnc4c(n1)NC(=O)CO4)C(=O)O2)C3` (stereo not shown) [Example 76, 6-[8-[[1-(2-aminoethyl)-8-fluoro-6,7-dihydro-5H-cyclopenta[f]benzotriazol-6-yl]methyl]-2-oxo-1-oxa-3,8-diazaspiro[4.5]decan-3-yl]-4H-pyrazino[2,3-b][1,4]oxazin-3-one]: the minimum inhibitory concentration (MIC) is 0.125 µg/mL (≈ 0.233 µM).

Consider `NC1(Cn2nc3c(F)c4c(c(F)c3n2)CC(CN2CCC3(CC2)CN(c2cnc5c(n2)NC(=O)CO5)C(=O)O3)C4)CC1.O=C(O)C(F)(F)F` [Example 77, 6-[8-[[2-[(1-aminocyclopropyl)methyl]-4,8-difluoro-6,7-dihydro-5H-cyclopenta[f]benzotriazol-6-yl]methyl]-2-oxo-1-oxa-3,8-diazaspiro[4.5]decan-3-yl]-4H-pyrazino[2,3-b][1,4]oxazin-3-one; 2,2,2-trifluoroacetic acid], for which the MIC turned out to be 0.25 µg/mL.

Take `NC1(Cn2nnc3c(F)c4c(c(F)c32)CC(CN2CCC3(CC2)CN(c2cnc5c(n2)NC(=O)CO5)C(=O)O3)C4)CC1` (stereo not shown) [Example 78, 6-[8-[[1-[(1-aminocyclopropyl)methyl]-4,8-difluoro-6,7-dihydro-5H-cyclopenta[f]benzotriazol-6-yl]methyl]-2-oxo-1-oxa-3,8-diazaspiro[4.5]decan-3-yl]-4H-pyrazino[2,3-b][1,4]oxazin-3-one]: the MIC was determined as 0.25 µg/mL (≈ 0.43 µM).

Take `O=C1COc2ncc(N3CC4(CCN(CC5Cc6c(c(F)c7nn(C8CNC8)nc7c6F)C5)CC4)OC3=O)nc2N1.O=CO` [Example 79, 6-[8-[[2-(azetidin-3-yl)-4,8-difluoro-6,7-dihydro-5H-cyclopenta[f]benzotriazol-6-yl]methyl]-2-oxo-1-oxa-3,8-diazaspiro[4.5]decan-3-yl]-4H-pyrazino[2,3-b][1,4]oxazin-3-one; formic acid]: the MIC amounted to 0.125 µg/mL.

Take `O=C1COc2ncc(N3CC4(CCN(CC5Cc6c(c(F)c7c(nnn7C7CNC7)c6F)C5)CC4)OC3=O)nc2N1` (stereo not shown) [Example 80, 6-[8-[[1-(azetidin-3-yl)-4,8-difluoro-6,7-dihydro-5H-cyclopenta[f]benzotriazol-6-yl]methyl]-2-oxo-1-oxa-3,8-diazaspiro[4.5]decan-3-yl]-4H-pyrazino[2,3-b][1,4]oxazin-3-one]: the MIC worked out at 0.125 µg/mL (≈ 0.22 µM).

With `NCCn1nc2cc(F)c3c(c2n1)CC(CN1CCC2(CC1)CN(c1cnc4c(n1)NC(=O)CO4)C(=O)O2)C3.O=C(O)C(F)(F)F` (stereo not shown) [Example 83, 6-[8-[[2-(2-aminoethyl)-5-fluoro-7,8-dihydro-6H-cyclopenta[e]benzotriazol-7-yl]methyl]-2-oxo-1-oxa-3,8-diazaspiro[4.5]decan-3-yl]-4H-pyrazino[2,3-b][1,4]oxazin-3-one; 2,2,2-trifluoroacetic acid], the MIC was ≤ 0.06 µg/mL.

Take `NCCn1nnc2cc(F)c3c(c21)CC(CN1CCC2(CC1)CN(c1cnc4c(n1)NC(=O)CO4)C(=O)O2)C3` (stereo not shown) [Example 84, 6-[8-[[1-(2-aminoethyl)-5-fluoro-7,8-dihydro-6H-cyclopenta[e]benzotriazol-7-yl]methyl]-2-keto-1-oxa-3,8-diazaspiro[4.5]decan-3-yl]-4H-pyrazino[2,3-b][1,4]oxazin-3-one]: the MIC came to 0.25 µg/mL (≈ 0.465 µM).

In general, MIC refers to the lowest concentration found to suppress growth.

Source of the values: patent US20240252506A1 (Hoffmann-La Roche Inc., priority 2021, published 2024).
